# Experimental data reported in PubChem BioAssay AID228 (DTP/NCI, 2004).
# “And” between values parts separate entries of the source, which are not always exact repeats. Identical values can stand only once. Inconclusive results are not listed.
# Tested on: BDF1 mice, Friend leukemia sc, tumor weight T/C
# Test: NCI In Vivo Anticancer Drug Screen. Data for tumor model Friend Virus Leukemia (Solid) (subcutaneous) in B6D2F1 (BDF1) mice
# Conditions: endpoint: mean tumor weight, higher = larger tumour
# Method: The antitumor activity of compounds was measured in mice bearing transplantable tumors. Survival or tumor size were measured and the results are expressed as the measurement made in the treated group (T) divided by the measurement made in the vehicle treated control group (C). The tumor model used in this assay is Friend Virus Leukemia (Solid) (subcutaneous) in B6D2F1 (BDF1) mice
# [1] = dose: 7.5 mg/kg/injection, schedule: Q01DX011 (ip), vehicle: carboxymethylcellulose (CMC)
# [2] = dose: 15.0 mg/kg/injection, schedule: Q01DX011 (ip), vehicle: carboxymethylcellulose (CMC)
# [3] = dose: 20.0 mg/kg/injection, schedule: Q01DX011 (ip), vehicle: carboxymethylcellulose (CMC)
# [4] = dose: 40.0 mg/kg/injection, schedule: Q01DX011 (ip), vehicle: carboxymethylcellulose (CMC)
structure (smiles),measurement,setting,value
Nc1nc(N)c(N=O)c(Nc2ccc(Cl)c(Cl)c2)n1,T/C,"dose: 3.75 mg/kg/injection, schedule: Q01DX011 (ip), vehicle: carboxymethylcellulose (CMC)",153 % of control
same,T/C,[1],69 % of control
same,T/C,[2],109 % of control
same,T/C,"dose: 30.0 mg/kg/injection, schedule: Q01DX011 (ip), vehicle: carboxymethylcellulose (CMC)",91 % of control
CCN(CC)CCNc1ccc([N+](=O)[O-])c2sc3ccccc3c(=O)c12,T/C,"dose: 20.0 mg/kg/injection, schedule: Q01DX011 (ip), vehicle: saline",87 % of control
same,T/C,"dose: 40.0 mg/kg/injection, schedule: Q01DX011 (ip), vehicle: saline",110 % of control
CC/C(=C(/CC)c1ccc(O)cc1)c1ccc(O)cc1,T/C,"dose: 6.5 mg/kg/injection, schedule: Q01DX011 (sc), vehicle: steriod suspending solution",171 % of control and 244 % of control
same,T/C,"dose: 13.0 mg/kg/injection, schedule: Q01DX011 (sc), vehicle: steriod suspending solution",169 % of control
same,T/C,"dose: 26.0 mg/kg/injection, schedule: Q01DX011 (sc), vehicle: steriod suspending solution",119 % of control and 121 % of control
same,T/C,"dose: 52.0 mg/kg/injection, schedule: Q01DX011 (sc), vehicle: steriod suspending solution",83 % of control
CCCNC(=NC)c1ccc(NC(=O)c2ccc(C(=O)Nc3ccc(C(=NC)NCCC)cc3)cc2)cc1,T/C,"dose: 3.0 mg/kg/injection, schedule: Q01DX011 (ip), vehicle: carboxymethylcellulose (CMC)",80 % of control
same,T/C,"dose: 6.0 mg/kg/injection, schedule: Q01DX011 (ip), vehicle: carboxymethylcellulose (CMC)",65 % of control
CS(=O)(=O)OCCCl,T/C,"dose: 14.0 mg/kg/injection, schedule: Q01DX011 (ip), vehicle: carboxymethylcellulose (CMC)",67 % of control
same,T/C,"dose: 28.0 mg/kg/injection, schedule: Q01DX011 (ip), vehicle: carboxymethylcellulose (CMC)",70 % of control
same,T/C,"dose: 57.0 mg/kg/injection, schedule: Q01DX011 (ip), vehicle: carboxymethylcellulose (CMC)",69 % of control
same,T/C,"dose: 115.0 mg/kg/injection, schedule: Q01DX011 (ip), vehicle: carboxymethylcellulose (CMC)",60 % of control
CCOC(=O)Sc1ncnc2nc[nH]c12,T/C,[1],44 % of control
same,T/C,[2],48 % of control
same,T/C,"dose: 25.0 mg/kg/injection, schedule: Q01DX011 (ip), vehicle: carboxymethylcellulose (CMC)",29 % of control and 40 % of control
same,T/C,"dose: 50.0 mg/kg/injection, schedule: Q01DX011 (ip), vehicle: carboxymethylcellulose (CMC)",17 % of control
same,T/C,"dose: 100.0 mg/kg/injection, schedule: Q01DX011 (ip), vehicle: carboxymethylcellulose (CMC)",2 % of control
CN(C)c1ccc2nc3ccc(=[N+](C)C)cc-3sc2c1,T/C,"dose: 5.0 mg/kg/injection, schedule: Q01DX011 (ip), vehicle: carboxymethylcellulose (CMC)",278 % of control
same,T/C,"dose: 10.0 mg/kg/injection, schedule: Q01DX011 (ip), vehicle: carboxymethylcellulose (CMC)",175 % of control
same,T/C,[3],171 % of control
same,T/C,[4],235 % of control
c1ncc2[nH]cnc2n1,T/C,"dose: 27.5 mg/kg/injection, schedule: Q01DX011 (ip), vehicle: carboxymethylcellulose (CMC)",104 % of control
same,T/C,"dose: 55.0 mg/kg/injection, schedule: Q01DX011 (ip), vehicle: carboxymethylcellulose (CMC)",87 % of control
same,T/C,"dose: 110.0 mg/kg/injection, schedule: Q01DX011 (ip), vehicle: carboxymethylcellulose (CMC)",81 % of control
same,T/C,"dose: 219.0 mg/kg/injection, schedule: Q01DX011 (ip), vehicle: carboxymethylcellulose (CMC)",43 % of control
Cn1c(=O)c2[nH]c(CCCc3nc4c([nH]3)c(=O)n(C)c(=O)n4C)nc2n(C)c1=O,T/C,[3],101 % of control
same,T/C,[4],94 % of control
same,T/C,"dose: 80.0 mg/kg/injection, schedule: Q01DX011 (ip), vehicle: carboxymethylcellulose (CMC)",44 % of control
